Source: ChEMBL document CHEMBL1156863, “Synthesis of 1-(D-glucopyranosyl)-1,2,3-triazoles and their evaluation as glycogen phosphorylase inhibitors” (Bioorg Med Chem, 2010)
pIC50, pKi: −log10 of the molar value.

Assays:
[1] = target: T1, Glycogen phosphorylase, muscle form (Oryctolagus cuniculus, UniProt P00489); experiment: Inhibition of rabbit skeletal muscle glycogen phosphorylase b by Dixon plot
T1 sequence (P00489 whole entry): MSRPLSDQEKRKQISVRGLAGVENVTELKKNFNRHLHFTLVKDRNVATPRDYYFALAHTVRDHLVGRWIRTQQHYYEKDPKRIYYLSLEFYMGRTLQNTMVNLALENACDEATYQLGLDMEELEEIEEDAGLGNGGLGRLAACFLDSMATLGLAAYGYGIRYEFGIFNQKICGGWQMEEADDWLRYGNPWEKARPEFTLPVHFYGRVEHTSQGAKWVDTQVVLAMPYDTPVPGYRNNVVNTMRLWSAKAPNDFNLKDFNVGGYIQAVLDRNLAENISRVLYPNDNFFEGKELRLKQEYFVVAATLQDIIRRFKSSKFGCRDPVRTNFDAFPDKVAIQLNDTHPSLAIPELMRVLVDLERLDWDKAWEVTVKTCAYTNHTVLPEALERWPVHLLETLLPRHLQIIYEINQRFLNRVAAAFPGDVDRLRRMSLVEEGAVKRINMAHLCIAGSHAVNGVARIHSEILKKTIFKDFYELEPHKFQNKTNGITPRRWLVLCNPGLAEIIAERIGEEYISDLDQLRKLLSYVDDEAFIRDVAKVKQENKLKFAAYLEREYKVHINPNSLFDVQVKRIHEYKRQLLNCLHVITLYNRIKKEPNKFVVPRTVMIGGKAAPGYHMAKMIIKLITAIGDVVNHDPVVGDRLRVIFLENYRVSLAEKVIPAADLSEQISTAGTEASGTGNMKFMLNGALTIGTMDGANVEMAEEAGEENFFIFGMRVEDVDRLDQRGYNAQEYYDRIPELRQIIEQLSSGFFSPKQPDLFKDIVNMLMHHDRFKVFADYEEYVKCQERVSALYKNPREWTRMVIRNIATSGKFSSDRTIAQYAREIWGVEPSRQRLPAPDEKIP

[2] = target: T1, Glycogen phosphorylase, muscle form
[3] = target: T1, Glycogen phosphorylase, muscle form; experiment: Inhibition of rabbit skeletal muscle glycogen phosphorylase b by Lineweaver-Burke plot analysis

Row | Compound | pKi [1] | pKi [2] | pIC50 [3]
1 | COC(=O)N[C@]1(C(N)=O)O[C@H](CO)[C@@H](O)[C@H](O)[C@H]1O | 4.80 | 4.80 | –
2 | NC(=O)[C@H]1O[C@H](CO)[C@@H](O)[C@H](O)[C@H]1O | – | 3.43 | –
3 | CC(=O)N[C@]1(C(N)=O)O[C@H](CO)[C@@H](O)[C@H](O)[C@H]1O | – | 3.51 | –
4 | NOC(=O)c1cn([C@@H]2O[C@H](CO)[C@@H](O)[C@H](O)[C@H]2O)nn1 | – | – | 3.46
5 | OC[C@H]1O[C@@H](n2cc(-c3ccc4ccccc4c3)nn2)[C@H](O)[C@@H](O)[C@@H]1O | 4.44 | – | –
6 | OC[C@H]1O[C@@H](n2cc(-c3cccc4ccccc34)nn2)[C@H](O)[C@@H](O)[C@@H]1O | – | – | 3.20
7 | OC[C@H]1O[C@@H](n2cc(Cc3ccccc3)nn2)[C@H](O)[C@@H](O)[C@@H]1O | – | – | 3.22
8 | COCC(=O)N[C@@H]1O[C@H](CO)[C@@H](O)[C@H](O)[C@H]1O | – | 3.68 | –
9 | OCc1cn([C@H]2O[C@H](CO)[C@@H](O)[C@H](O)[C@H]2O)nn1 | – | – | 3.17
10 | COC(=O)c1cn([C@@H]2O[C@H](CO)[C@@H](O)[C@H](O)[C@H]2O)nn1 | – | – | 3.30
11 | O=C(Cc1ccccc1)N[C@@H]1O[C@H](CO)[C@@H](O)[C@H](O)[C@H]1O | – | 2.96 | –
12 | OC[C@H]1O[C@@H](n2cc(-c3ccccc3)nn2)[C@H](O)[C@@H](O)[C@@H]1O | 3.79 | – | –
13 | O=C(O)c1cn([C@H]2O[C@H](CO)[C@@H](O)[C@H](O)[C@H]2O)nn1 | – | – | 3.40
14 | OCc1cn([C@@H]2O[C@H](CO)[C@@H](O)[C@H](O)[C@H]2O)nn1 | 4.59 | – | –
15 | NC(=O)[C@@]1(n2cc(-c3ccc4ccccc4c3)nn2)O[C@H](CO)[C@@H](O)[C@H](O)[C@H]1O | – | – | 3.11
16 | O=C(CO)N[C@@H]1O[C@H](CO)[C@@H](O)[C@H](O)[C@H]1O | 4.70 | – | –
17 | O=C(NC1O[C@H](CO)[C@@H](O)[C@H](O)[C@H]1O)c1ccccc1 (single isomer, unassigned) | – | 3.84 | –
